Source: patent US11168086B2, “Methods of synthesizing pyrazine compounds” (Hoffmann-La Roche Inc., priority 2015, dated 2021)

Test system: HBV
Assay: HBV inhibition assay: anti-HBV activity in vitro in HepG2.2.15 cells (extracellular HBV DNA by qPCR)
Format: cell-based
Conditions: Hepatitis B virus, 120 h, five days after compound treatment, extracellular HBV DNA in culture supernatant by qPCR, concentration at which HBV replication is inhibited by 50%
Procedure, shortened: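 HepG2.2.15 cells (stably carrying HBV genome) treated with half-log serially diluted compounds at 0.5% DMSO final for five days. Extracellular HBV DNA in supernatant quantified by qPCR after Proteinase K digestion; EC50 is concentration giving 50% inhibition of replication.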

Compound | EC50 [nM]
Cc1nnc(C2CC(=O)N(c3cnn4c3CN(C(=O)Nc3cc(F)c(F)c(F)c3)[C@@H](C)C4)C2)o1 (stereo partly drawn) [Example 283, (6S)-6-methyl-3-[4-(5-methyl-1,3,4-oxadiazol-2-yl)-2-oxo-pyrrolidin-1-yl]-N-(3,4,5-trifluorophenyl)-6,7-dihydro-4H-pyrazolo[1,5-a]pyrazine-5-carboxamide] | 47
C[C@H]1Cn2ncc(N3CC(c4ccc(F)cn4)OC3=O)c2CN1C(=O)Nc1cc(F)c(F)c(F)c1 (stereo partly drawn) [Example 410, (6S)-3-[5-(5-fluoro-2-pyridyl)-2-oxo-oxazolidin-3-yl]-6-methyl-N-(3,4,5-trifluorophenyl)-6,7-dihydro-4H-pyrazolo[1,5-a]pyrazine-5-carboxamide] | 37
C[C@H]1Cn2ncc(N3CC(O)CC3=O)c2CN1C(=O)Nc1ccc(F)c(Cl)c1 (stereo partly drawn) [Example 232, (6S)—N-(3-chloro-4-fluoro-phenyl)-3-(4-hydroxy-2-oxo-pyrrolidin-1-yl)-6-methyl-6,7-dihydro-4H-pyrazolo[1,5-a]pyrazine-5-carboxamide] | 49
Cc1nc(C2(C)CC(=O)N(c3cnn4c3CN(C(=O)Nc3cc(F)c(F)c(F)c3)[C@@H](C)C4)C2)no1 (stereo partly drawn) [Example 406, (6S)-6-methyl-3-[4-methyl-4-(5-methyl-1,2,4-oxadiazol-3-yl)-2-oxo-pyrrolidin-1-yl]-N-(3,4,5-trifluorophenyl)-6,7-dihydro-4H-pyrazolo[1,5-a]pyrazine-5-carboxamide] | 6
CC1Cn2ncc(-c3ccc(F)cc3F)c2CN1C(=O)Nc1ccnc(C(F)F)c1 (centres unmarked) [Example 218, N-[2-(difluoromethyl)-4-pyridyl]-3-(2,4-difluorophenyl)-6-methyl-6,7-dihydro-4H-pyrazolo[1,5-a]pyrazine-5-carboxamide] | 14
C[C@H]1Cn2ncc(N3CC(C(=O)N(C)C)CC3=O)c2CN1C(=O)Nc1cc(F)c(F)c(F)c1 (stereo partly drawn) [Example 390, (6S)-3-[4-(dimethylcarbamoyl)-2-oxo-pyrrolidin-1-yl]-6-methyl-N-(3,4,5-trifluorophenyl)-6,7-dihydro-4H-pyrazolo[1,5-a]pyrazine-5-carboxamide] | 103
C[C@H]1Cn2ncc(N3CC(C)(C)OC3=O)c2CN1C(=O)Nc1cc(F)c(F)c(C(F)F)c1 [Example 276, (6S)—N-[3-(difluoromethyl)-4,5-difluoro-phenyl]-3-(5,5-dimethyl-2-oxo-oxazolidin-3-yl)-6-methyl-6,7-dihydro-4H-pyrazolo[1,5-a]pyrazine-5-carboxamide] | 6
N#Cc1cc(NC(=O)N2CCn3cnc(-c4ccc(F)cc4F)c3C2)ccc1F [Example 136, N-(3-cyano-4-fluoro-phenyl)-1-(2,4-difluorophenyl)-6,8-dihydro-5H-imidazo[1,5-a]pyrazine-7-carboxamide] | 56
C[C@H]1Cn2ncc(N3CC4(CC3=O)CN(C(=O)c3ncco3)C4)c2CN1C(=O)Nc1cc(F)c(F)c(F)c1 [Example 336, (6S)-6-methyl-3-[2-(oxazole-2-carbonyl)-7-oxo-2,6-diazaspiro[3.4]octan-6-yl]-N-(3,4,5-trifluorophenyl)-6,7-dihydro-4H-pyrazolo[1,5-a]pyrazine-5-carboxamide] | 66
CC1Cn2ncc(N3CC(C)(C)CC3=O)c2CN1C(=O)Nc1ccc(F)c(Cl)c1 (centres unmarked) [Example 212, N-(3-chloro-4-fluoro-phenyl)-3-(4,4-dimethyl-2-oxo-pyrrolidin-1-yl)-6-methyl-6,7-dihydro-4H-pyrazolo[1,5-a]pyrazine-5-carboxamide] | 33
C[C@H]1Cn2ncc(N3CC(C(=O)N(C)c4ncco4)CC3=O)c2CN1C(=O)Nc1cc(F)c(F)c(F)c1 (stereo partly drawn) [Example 399, (6S)-6-methyl-3-[4-[methyl(oxazol-2-yl)carbamoyl]-2-oxo-pyrrolidin-1-yl]-N-(3,4,5-trifluorophenyl)-6,7-dihydro-4H-pyrazolo[1,5-a]pyrazine-5-carboxamide] | 19
C[C@H]1Cn2ncc(N3C(=O)COC[C@@H]3C)c2CN1C(=O)Nc1cc(F)c(F)c(F)c1 [Example 372, (6S)-6-methyl-3-[(3S)-3-methyl-5-oxo-morpholin-4-yl]-N-(3,4,5-trifluorophenyl)-6,7-dihydro-4H-pyrazolo[1,5-a]pyrazine-5-carboxamide] | 50
CCC1CC(=O)N(c2cnn3c2CN(C(=O)Nc2ccc(F)c(Cl)c2)[C@@H](C)C3)C1 (stereo partly drawn) [Example 302, (6S)—N-(3-chloro-4-fluoro-phenyl)-3-(4-ethyl-2-oxo-pyrrolidin-1-yl)-6-methyl-6,7-dihydro-4H-pyrazolo[1,5-a]pyrazine-5-carboxamide] | 20
CC1CN(c2cnn3c2CN(C(=O)Nc2ccc(F)c(Cl)c2)[C@@H](C)C3)C(=O)O1 (stereo partly drawn) [Example 321, (6S)—N-(3-chloro-4-fluoro-phenyl)-6-methyl-3-(5-methyl-2-oxo-oxazolidin-3-yl)-6,7-dihydro-4H-pyrazolo[1,5-a]pyrazine-5-carboxamide] | 47
O=C(Nc1ccc(F)c(Cl)c1)N1CCn2nnc(-c3ccc(F)cc3F)c2C1 [Example 155, N-(3-chloro-4-fluoro-phenyl)-3-(2,4-difluorophenyl)-6,7-dihydro-4H-triazolo[1,5-a]pyrazine-5-carboxamide] | 40
C[C@H]1Cn2ncc(N3CC(C)(CO)CC3=O)c2CN1C(=O)Nc1cc(F)c(F)c(F)c1 (stereo partly drawn) [Example 362, (6S)-3-[4-(hydroxymethyl)-4-methyl-2-oxo-pyrrolidin-1-yl]-6-methyl-N-(3,4,5-trifluorophenyl)-6,7-dihydro-4H-pyrazolo[1,5-a]pyrazine-5-carboxamide] | 32
CO[C@@H]1CC(=O)N(c2cnn3c2CN(C(=O)Nc2cc(F)c(F)c(F)c2)[C@@H](C)C3)C1 [Example 379, (6S)-3-[(4R)-4-methoxy-2-oxo-pyrrolidin-1-yl]-6-methyl-N-(3,4,5-trifluorophenyl)-6,7-dihydro-4H-pyrazolo[1,5-a]pyrazine-5-carboxamide] | 38
C[C@H]1Cn2ncc(N3C(=O)Cc4ccccc43)c2CN1C(=O)Nc1cc(F)c(F)c(F)c1 [Example 338, (6S)-6-methyl-3-(2-oxoindolin-1-yl)-N-(3,4,5-trifluorophenyl)-6,7-dihydro-4H-pyrazolo[1,5-a]pyrazine-5-carboxamide] | 14
C[C@H]1Cn2ncc(N3CC(c4ccccc4)OC3=O)c2CN1C(=O)Nc1cc(F)c(F)c(F)c1 (stereo partly drawn) [Example 344, (6S)-6-methyl-3-(2-oxo-5-phenyl-oxazolidin-3-yl)-N-(3,4,5-trifluorophenyl)-6,7-dihydro-4H-pyrazolo[1,5-a]pyrazine-5-carboxamide] | 7
CC1Cn2ncc(-c3ccc(F)cc3F)c2CN1C(=O)Nc1ccnc(F)c1 (centres unmarked) [Example 174, 3-(2,4-difluorophenyl)-N-(2-fluoro-4-pyridyl)-6-methyl-6,7-dihydro-4H-pyrazolo[1,5-a]pyrazine-5-carboxamide] | 66
C[C@H]1Cn2ncc(-n3cc(CO)cn3)c2CN1C(=O)Nc1cc(F)c(F)c(F)c1 [Example 342, (6S)-3-[4-(hydroxymethyl)pyrazol-1-yl]-6-methyl-N-(3,4,5-trifluorophenyl)-6,7-dihydro-4H-pyrazolo[1,5-a]pyrazine-5-carboxamide] | 41
C[C@H]1Cn2ncc(N3C[C@@H](Oc4ncc(F)cn4)CC3=O)c2CN1C(=O)Nc1cc(F)c(F)c(F)c1 [Example 382, (6S)-3-[(4S)-4-(5-fluoropyrimidin-2-yl)oxy-2-oxo-pyrrolidin-1-yl]-6-methyl-N-(3,4,5-trifluorophenyl)-6,7-dihydro-4H-pyrazolo[1,5-a]pyrazine-5-carboxamide] | 16
C[C@@H]1CN(C(=O)C2CC(=O)N(c3cnn4c3CN(C(=O)Nc3cc(F)c(F)c(F)c3)[C@@H](C)C4)C2)C[C@H](C)O1 (stereo partly drawn) [Example 397, (6S)-3-[4-[cis-2,6-dimethylmorpholine-4-carbonyl]-2-oxo-pyrrolidin-1-yl]-6-methyl-N-(3,4,5-trifluorophenyl)-6,7-dihydro-4H-pyrazolo[1,5-a]pyrazine-5-carboxamide] | 60
C[C@H]1Cn2ncc(N3CN(C(=O)c4ccccc4)CC3=O)c2CN1C(=O)Nc1cc(F)c(F)c(F)c1 [Example 275, (6S)-3-(3-benzoyl-5-oxo-imidazolidin-1-yl)-6-methyl-N-(3,4,5-trifluorophenyl)-6,7-dihydro-4H-pyrazolo[1,5-a]pyrazine-5-carboxamide] | 64
CC1CCC(=O)N(c2cnn3c2CN(C(=O)Nc2cc(F)c(F)c(F)c2)[C@@H](C)C3)C1 (stereo partly drawn) [Example 358, (6S)-6-methyl-3-(5-methyl-2-oxo-1-piperidyl)-N-(3,4,5-trifluorophenyl)-6,7-dihydro-4H-pyrazolo[1,5-a]pyrazine-5-carboxamide] | 43
COC1CC(=O)N(c2cnn3c2CN(C(=O)Nc2ccc(F)c(Cl)c2)[C@@H](C)C3)C1 (stereo partly drawn) [Example 238, (6S)—N-(3-chloro-4-fluoro-phenyl)-3-(4-methoxy-2-oxo-pyrrolidin-1-yl)-6-methyl-6,7-dihydro-4H-pyrazolo[1,5-a]pyrazine-5-carboxamide] | 21
C[C@H]1Cn2ncc(N3CC(c4ccccn4)CC3=O)c2CN1C(=O)Nc1cc(F)c(F)c(F)c1 (stereo partly drawn) [Example 353, (6S)-6-methyl-3-[2-oxo-4-(2-pyridyl)pyrrolidin-1-yl]-N-(3,4,5-trifluorophenyl)-6,7-dihydro-4H-pyrazolo[1,5-a]pyrazine-5-carboxamide] | 5
C[C@H]1Cn2ncc(N3CCCOC3=O)c2CN1C(=O)Nc1cc(F)c(F)c(F)c1 [Example 292, (6S)-6-methyl-3-(2-oxo-1,3-oxazinan-3-yl)-N-(3,4,5-trifluorophenyl)-6,7-dihydro-4H-pyrazolo[1,5-a]pyrazine-5-carboxamide] | 48
Cc1cc(NC(=O)N2CCn3ncc(-c4ccc(F)cc4)c3C2)ccn1 [Example 176, 3-(4-fluorophenyl)-N-(2-methyl-4-pyridyl)-6,7-dihydro-4H-pyrazolo[1,5-a]pyrazine-5-carboxamide] | 52
